The text below walks through data of PubChem BioAssay (NCI).

SMILES strings stand for the structures.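 1) Cells in 96-well plates. 2) Compound, 48 h, 5 concentrations. 3) Linear interpolation between surrounding doses. 4) Unreached endpoint = highest concentration. At the GI50, growth is halved. At the TGI there is no net growth.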 Some results are limits rather than exact numbers.

Some test systems named below: SF-539 CNS; EKVX NSCLC; NCI/ADR-RES ovarian; PC-3 prostate; A549 NSCLC; OVCAR-5 ovarian; COLO 205 colon; MOLT-4 leukemia; SNB-19 CNS; A498 renal.
Holding throughout (test): NCI-60 cell line screen, 48 h

Turning to `COc1ccc(Cn2cc3c(c2-c2ccccc2)CCc2cnoc2-3)cc1N`, the GI50 in the test on SF-539 CNS is 0.158 µM; with EKVX NSCLC, 0.359 µM; in the test with NCI/ADR-RES ovarian, 0.0828 µM; with PC-3 prostate it was 0.551 µM; with A549 NSCLC, 0.224 µM; in the test with OVCAR-5 ovarian it was 0.629 µM. In addition, the GI50 with COLO 205 colon was 1.32 µM; with MOLT-4 leukemia, 0.398 µM; with SNB-19 CNS, 0.531 µM; in the test with A498 renal, 0.0638 µM. The TGI is 0.579 µM in the test on SF-539 CNS; greater than 100 µM in the test with EKVX NSCLC; greater than 100 µM in the test with PC-3 prostate; greater than 100 µM with A549 NSCLC; greater than 100 µM in the test with OVCAR-5 ovarian; 4.08 µM with COLO 205 colon. Besides, the values for the TGI with MOLT-4 leukemia, in the test with SNB-19 CNS and in the test on A498 renal were greater than 96.1 µM, greater than 100 µM and 0.64 µM, respectively.
Regarding `O=C(CC(=O)c1cccc(Cl)c1)c1cccc(Cl)c1`, the GI50 with SF-539 CNS is 2.91 µM; in the test with EKVX NSCLC it was 2.16 µM; with NCI/ADR-RES ovarian it was 2.06 µM; with PC-3 prostate, 2.41 µM; in the test on A549 NSCLC, 4.68 µM; with OVCAR-5 ovarian, 4.3 µM. For the same compound, the GI50 in the test with COLO 205 colon was 3.97 µM; with MOLT-4 leukemia, 2.08 µM; in the test on SNB-19 CNS, 6.68 µM; with A498 renal, 5.07 µM. Moreover, the TGI in the test on SF-539 CNS is greater than 100 µM; in the test on EKVX NSCLC, greater than 100 µM; in the test with NCI/ADR-RES ovarian, 6.35 µM; in the test on PC-3 prostate, greater than 100 µM; in the test on A549 NSCLC, greater than 100 µM; in the test with OVCAR-5 ovarian, greater than 100 µM. Also, the TGI with COLO 205 colon, in the test with MOLT-4 leukemia, with SNB-19 CNS and in the test with A498 renal was greater than 100 µM each time.
As for `Oc1[nH]c2ccccc2c1N=Nc1c(F)c(F)c(F)c(F)c1F`, the TGI with SF-539 CNS, in the test with EKVX NSCLC, in the test with NCI/ADR-RES ovarian, with PC-3 prostate, in the test on A549 NSCLC and with OVCAR-5 ovarian was greater than 100 µM throughout. In addition, the TGI was 28.3 µM with COLO 205 colon, 31.8 µM with MOLT-4 leukemia, greater than 100 µM in the test on SNB-19 CNS and greater than 100 µM in the test with A498 renal.
Regarding `Clc1ccccc1C(Nc1ncccn1)Nc1ncccn1`, the TGI in the test on SF-539 CNS, in the test on EKVX NSCLC, with NCI/ADR-RES ovarian, in the test on PC-3 prostate, in the test with A549 NSCLC and with OVCAR-5 ovarian was greater than 100 µM throughout. Also, the TGI with COLO 205 colon, with MOLT-4 leukemia, with SNB-19 CNS and with A498 renal was greater than 100 µM each time.
Consider `CN(C)c1ccc(/C=c2/c3ccccc3n3c2c2cc(F)ccc2[n+]3C)cc1`, for which the GI50 was 2.59 µM in the test on SF-539 CNS; 4.29 µM in the test with EKVX NSCLC; 48.4 µM in the test on NCI/ADR-RES ovarian; 5.72 µM in the test with PC-3 prostate; 6.04 µM in the test on A549 NSCLC; 16.2 µM in the test on OVCAR-5 ovarian. The GI50 in the test on COLO 205 colon was 2.15 µM; with MOLT-4 leukemia, 8.63 µM; with SNB-19 CNS it was 10.2 µM; in the test on A498 renal it was 5.24 µM. Besides, the TGI with SF-539 CNS is 7.49 µM; with EKVX NSCLC it was 20.1 µM; with NCI/ADR-RES ovarian, greater than 100 µM; in the test with PC-3 prostate it was 19.9 µM; in the test on A549 NSCLC it was 27.2 µM; in the test with OVCAR-5 ovarian, 31.5 µM. The TGI in the test on COLO 205 colon stood at 7.37 µM; with MOLT-4 leukemia, 27.5 µM; in the test on SNB-19 CNS it was 44.3 µM; in the test on A498 renal, 17.4 µM.
Consider `CC(=O)c1cc(C(=O)c2ccc3c(c2)Sc2ccccc2N3)c2c(C)cccn12`, for which the GI50 with SF-539 CNS is 0.234 µM; in the test with EKVX NSCLC, 0.476 µM; in the test with NCI/ADR-RES ovarian it was 0.184 µM; with PC-3 prostate, 0.321 µM; with A549 NSCLC, 0.265 µM; with OVCAR-5 ovarian, 0.63 µM. For the same compound, the GI50 in the test with COLO 205 colon was 0.187 µM; in the test with MOLT-4 leukemia it was 0.556 µM; with SNB-19 CNS, 0.246 µM; with A498 renal, 0.141 µM. Also, the TGI with SF-539 CNS is 1.13 µM; with EKVX NSCLC it was greater than 100 µM; with NCI/ADR-RES ovarian, 18 µM; in the test on PC-3 prostate, greater than 100 µM; in the test on A549 NSCLC, 40.4 µM; with OVCAR-5 ovarian, greater than 100 µM. Further, the TGI with COLO 205 colon was 0.426 µM; in the test with MOLT-4 leukemia it was greater than 100 µM; with SNB-19 CNS, greater than 100 µM; with A498 renal it was 1.9 µM.
For `C#COc1cccc(Nc2ncnc3cc(NC(=O)[C@H](C)Cl)ccc23)c1`, the GI50 is 2.85 µM with SF-539 CNS; 17.4 µM in the test with EKVX NSCLC; 2.4 µM in the test with NCI/ADR-RES ovarian; 3.23 µM in the test with PC-3 prostate; 3.18 µM with A549 NSCLC; 3.84 µM in the test on OVCAR-5 ovarian. Also, the GI50 in the test with COLO 205 colon is 3.86 µM; with MOLT-4 leukemia it was 2.42 µM; with SNB-19 CNS, 4.72 µM; with A498 renal, 1.73 µM. Also, the TGI in the test with SF-539 CNS, with EKVX NSCLC, with NCI/ADR-RES ovarian, in the test on PC-3 prostate, in the test on A549 NSCLC and in the test on OVCAR-5 ovarian was greater than 62.5 µM throughout. In addition, the TGI with COLO 205 colon was greater than 62.5 µM; in the test with MOLT-4 leukemia, greater than 62.5 µM; with SNB-19 CNS, greater than 62.5 µM; in the test with A498 renal it was 34.5 µM.
